# Laboratory results reported in patent publication US20120064102A1, “PEPTIDE INDUCING XAGE-1B-SPECIFIC IMMUNE REACTION AND UTILIZATION OF SAME” (NATIONAL UNIVERSITY CORPORATION OKAYAMA UNIVERSITY, priority 2009, published 2012).
# B1: XAGE-1b protein: XAGE-1b protein (81 amino acids, SEQ ID. No. 1) synthesized by GL Biochem; cancer/testis antigen (protein, listed as Homo sapiens)
# chain: MESPKKKNQQLKVGILHLGSRQKKIRIQLRSQCATWKVICKSCISQTPGINLDLGSGVKVKIIPKEEHCKMPEAGEEQPQV
# What was measured:
# U937 = test: intake of FAM-conjugated NY-ESO-1 f peptide into antigen-presenting cell; assay type: cell-based, human; conditions: 3 hours after the start of culturing; U937 primed with 20 ng/ml PMA
# Method: Initially, the inventors of the present invention analyzed the point (A). Specifically, U937, which is a human monocytic leukemia strain, was subjected to priming using 20 ng/ml of PMA, and then cultured with NY-ESO-1 f peptide conjugated with FAM™. Localization of NY-ESO-1 f peptide in U937 was confirmed by observing fluorescence of FAM™ which is a fluorescent pigment.
# FIG. 27 is a view illustrating that NY-ESO-1 f peptide was taken into an antigen-presenting cell (U937).
# [1] = system: CD8-positive T cell clones (TK-f01 2H10); test: antigen presentation by MHC class I, cross-presentation (IFN-γ ELISA); assay type: cell-based, human
# Method: Further, it was confirmed that NY-ESO-1 f peptide is presented as an antigen also by MHC class I, i.e., cross-presented (FIG. 29). Specifically, in a non-serum AIM-V culture medium containing 1 μM of NY-ESO-192-100 short-chain peptide, 1 μM of NY-ESO-191-110 f peptide or 10 μg/ml of recombinant protein, dendritic cells (5×10^5 cells/ml) were cultured and pulsed with antigen, in the presence/absence of 10 μM of cytochalasin B. The cells were washed and then CD8-positive T cell clones (TK-f01 2H10) (5×10^3 cells) were cultured at 37° C. for 24 hours with the dendritic cells (5×10^3 cells) pulsed with the antigens. The amount of production of IFN-γ by antigen stimulation was measured by ELISA.
# [2] = system: NY-ESO-1-specific CD4-positive T cell clones (E-8A1); test: antigen presentation by MHC class II (IFN-γ ELISA); assay type: cell-based, human
# Method: Specifically, NY-ESO-1-specific CD4-positive T cell clones (E-8A1) were subjected to IFN-γ ELISA by use of self-EBV-B cells as antigen-presenting cells, in the presence of peptide NY-ESO-1 f peptide at a temperature condition of 4° C. or 37° C.
# “E/T ratio” of the horizontal axis of FIG. 28 indicates a ratio of co-culturing between Effector (T cell) and Target (EBV-B cell).
# [3] = system: HLA-B*3501-restricted CD8-positive T cell clones (8C187-4); test: IFN-γ ELISA with CD8-positive T cell clones 8C187-4; assay type: cell-based, human; conditions: clone 8C187-4
# Text: FIG. 19 is a view showing that peptide 21-36 is a peptide recognized by T cell clones (8C187-4).
# As shown in (c) of FIG. 19, when CD8-positive T cell clones (8C187-4) obtained from KLU 187 were stimulated with EBV-B cells expressing HLA-B*3501 as antigen-presenting cells, production of XAGE-1b-specific IFN-γ were detected.
# [4] = system: XAGE-1b-specific IgG antibody; test: ELISA of XAGE-1b-specific IgG antibody in serums; assay type: binding, human
# Method: Full-length XAGE-1b protein (carbonic acid buffer, pH 9.6) with a concentration of 1 μg/ml was immobilized overnight on a 96 well plate (NUNC) at 4° C., and then the plate was washed with a washing solution (PBS/0.1% TWEEN). To the washed plate, 5 FCS/PBS was added and the plate was subjected to blocking at 37° C. for 1 hour. After the blocking, serum diluted 100 times, 300 times, 900 times, or 2700 times was added and the resultant was caused to react at 37° C. for 2 hours. Subsequently, the resultant was washed with the washing solution, and then peroxidase-binding goat anti-human IgG antibody (diluted 5000 times) (Jackson ImmunoResearch Laboratories, Inc.) was added to the resultant and this mixture was caused to react at 37° C. for 1 hour. After the reaction, the resultant was washed with the washing solution and a substrate solution to which hydrogen peroxide was added (solution obtained by dissolving orthophenylendiamine in 0.05M citric acid buffer (pH 5.0)) was added to stain the resultant. After the staining, 6N sulfuric acid was added to stop the reaction, and absorbance (wavelength of 490 nm) thereof was measured using a microplate reader (Bio-Rad Laboratories, Inc.).
# Whether or not humoral immune responses to XAGE-1b were present were examined for 200 cases of subjects suffering from non-small-cell lung cancer (including 69 cases of subjects suffering from lung adenocarcinoma in the late stage) who had consulted Kawasaki Medical School Hospital from 2005 to 2009, and for 50 cases of normal healthy subjects serving as controls.
# Specifically, whether or not XAGE-1b-specific IgG antibody was present in serums sampled from lung cancer patients was examined by ELISA.
# Among them, the lung cancer patients of the very-strong zone, the strong zone, and the weak zone were regarded as serum antibody titer-positive patients.
# [5] = system: XAGE-1b-specific CD4-positive T cells (4C187-1); test: natural epitope recognition by CD4 clone T-cells 4C187-1; assay type: cell-based, human; conditions: clone 4C187-1
Molecule,intake into antigen-presenting cells (U937),effect of cytochalasin B on reaction ([1]; 10 μM of cytochalasin B),antigen presentation by MHC class I ([1]; dendritic cells pulsed with 1 μM peptide),effect of low temperature on reaction ([2]; low temperature (4° C.) blocks intake),"antigen presentation by MHC class II ([2]; self-EBV-B cells as antigen-presenting cells, 4° C. or 37° C.)",reaction on stimulation with self-dendritic cells pulsed with antigen [3],antibody reaction to XAGE-1b ([4]; 50 cases of normal healthy subjects),XAGE-1b serum antibody titer-positive cases ([4]; Non-small-cell lung cancer (n = 200)),XAGE-1b serum antibody titer-positive cases ([4]; Stage 3B/4 lung adenocarcinoma (n = 69)),reaction on stimulation with self-dendritic cells pulsed with antigen [5]
NY-ESO-1 f peptide: long-chain peptide made up of 20 amino acids of NY-ESO-1 (YLAMPFATPMEAELARRSLA),taken into the cells,decrease in a reaction to CD8-positive T cells,presented as an antigen by MHC class I,decrease in a reaction to CD4-positive T cells,presented as an antigen by MHC class II,,,,,
B1,,,,,,production of antigen-specific IFN-γ,no antibody reaction to XAGE-1b was observed,20 (10.0%) n (%),13 (18.8%) n (%),production of antigen-specific IFN-γ
